Results as given in ChEMBL document CHEMBL5034035, “Discovery of an Oxycyclohexyl Acid Lysophosphatidic Acid Receptor 1 (LPA1) Antagonist BMS-986278 for the Treatment of Pulmonary Fibrotic Diseases” (J Med Chem, 2021).

Tests used:
[1] = Drug concentration in po dosed monkey plasma assessed as concentration of parent compound; assay type: ADME, organism-based, Macaca mulatta; settings: rhesus monkey, in vivo
[2] = Protein binding in Sprague-Dawley rat plasma assessed as free fraction at 3 mg/kg, po or 1 mg/kg, iv measured up to 24 hrs by LC-MS/MS analysis; assay type: ADME, organism-based
[3] = target: T1, Solute carrier organic anion transporter family member 1B1 (Homo sapiens, UniProt Q9Y6L6); experiment: Inhibition of OATP1B1 (unknown origin); assay type: ADME
T1 sequence (Q9Y6L6 whole entry): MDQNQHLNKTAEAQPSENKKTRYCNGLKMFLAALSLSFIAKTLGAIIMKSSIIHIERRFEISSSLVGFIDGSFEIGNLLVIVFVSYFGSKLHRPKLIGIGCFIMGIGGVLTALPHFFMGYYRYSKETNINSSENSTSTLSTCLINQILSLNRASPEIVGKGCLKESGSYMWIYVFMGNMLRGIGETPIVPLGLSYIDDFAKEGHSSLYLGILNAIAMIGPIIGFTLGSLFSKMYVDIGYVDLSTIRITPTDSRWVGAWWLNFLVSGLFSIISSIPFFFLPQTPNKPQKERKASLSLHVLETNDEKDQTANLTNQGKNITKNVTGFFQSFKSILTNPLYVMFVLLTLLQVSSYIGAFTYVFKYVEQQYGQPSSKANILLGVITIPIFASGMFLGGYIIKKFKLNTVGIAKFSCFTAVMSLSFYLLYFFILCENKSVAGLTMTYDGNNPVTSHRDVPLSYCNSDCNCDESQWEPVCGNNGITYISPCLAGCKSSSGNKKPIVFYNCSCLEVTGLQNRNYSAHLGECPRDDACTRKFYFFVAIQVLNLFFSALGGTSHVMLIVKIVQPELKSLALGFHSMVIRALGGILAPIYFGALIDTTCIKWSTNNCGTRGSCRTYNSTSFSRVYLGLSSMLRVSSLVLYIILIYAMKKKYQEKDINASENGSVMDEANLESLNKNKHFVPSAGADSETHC

[4] = Protein binding in human plasma assessed as free fraction at 3 mg/kg, po or 1 mg/kg, iv measured up to 24 hrs by LC-MS/MS analysis; assay type: ADME, organism-based
[5] = target: Bile salt export pump (Homo sapiens, UniProt O95342); experiment: Inhibition of BSEP (unknown origin); assay type: ADME
[6] = Protein binding in CD-1 mouse plasma assessed as free fraction at 3 mg/kg, po or 1 mg/kg, iv measured up to 24 hrs by LC-MS/MS analysis; assay type: ADME, organism-based

Chain of Bile salt export pump (O95342 whole entry): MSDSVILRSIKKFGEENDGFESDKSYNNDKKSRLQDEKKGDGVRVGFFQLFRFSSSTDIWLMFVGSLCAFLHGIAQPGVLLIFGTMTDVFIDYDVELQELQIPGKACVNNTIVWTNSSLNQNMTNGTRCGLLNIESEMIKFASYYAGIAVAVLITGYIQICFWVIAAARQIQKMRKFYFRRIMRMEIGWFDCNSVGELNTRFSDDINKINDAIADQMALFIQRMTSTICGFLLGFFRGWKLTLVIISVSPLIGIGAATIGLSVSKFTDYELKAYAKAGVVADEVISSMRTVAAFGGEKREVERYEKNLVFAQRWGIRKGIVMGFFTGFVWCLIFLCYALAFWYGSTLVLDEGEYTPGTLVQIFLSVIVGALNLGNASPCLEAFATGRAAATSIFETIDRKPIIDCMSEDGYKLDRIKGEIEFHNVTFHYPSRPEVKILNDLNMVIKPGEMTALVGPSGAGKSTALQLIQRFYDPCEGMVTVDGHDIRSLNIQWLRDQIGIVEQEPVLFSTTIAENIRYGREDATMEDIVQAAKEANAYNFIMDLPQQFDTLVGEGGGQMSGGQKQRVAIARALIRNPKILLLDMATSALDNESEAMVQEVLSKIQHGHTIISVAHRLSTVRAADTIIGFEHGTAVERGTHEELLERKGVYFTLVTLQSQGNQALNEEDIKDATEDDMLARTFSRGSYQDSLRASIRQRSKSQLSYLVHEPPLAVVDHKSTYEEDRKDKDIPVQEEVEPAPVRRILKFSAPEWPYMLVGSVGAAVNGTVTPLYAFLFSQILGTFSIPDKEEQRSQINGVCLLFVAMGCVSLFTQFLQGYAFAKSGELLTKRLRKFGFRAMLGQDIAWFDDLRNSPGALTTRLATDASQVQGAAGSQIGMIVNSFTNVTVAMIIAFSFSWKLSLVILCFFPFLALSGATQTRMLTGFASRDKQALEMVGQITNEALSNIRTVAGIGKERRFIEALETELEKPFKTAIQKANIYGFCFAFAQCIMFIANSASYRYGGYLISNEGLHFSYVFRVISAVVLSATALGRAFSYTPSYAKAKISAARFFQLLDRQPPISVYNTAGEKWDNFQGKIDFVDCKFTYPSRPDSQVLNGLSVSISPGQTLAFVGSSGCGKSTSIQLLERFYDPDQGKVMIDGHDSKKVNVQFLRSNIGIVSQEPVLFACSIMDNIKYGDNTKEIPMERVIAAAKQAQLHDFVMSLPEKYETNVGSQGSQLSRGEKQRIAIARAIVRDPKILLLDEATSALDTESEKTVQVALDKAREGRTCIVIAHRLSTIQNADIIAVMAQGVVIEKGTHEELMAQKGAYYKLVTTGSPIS

| Drug uptake [1] [%] | fraction unbound at 24 h [2] | IC50 [3] [µM] | fraction unbound at 24 h [4] | fraction unbound at 24 h [6] | SMILES | IC50 [5] [µM] |
| --- | --- | --- | --- | --- | --- | --- |
| < 10 |  |  |  |  | CCCNC(=O)OCc1c(-c2ccc(O[C@H]3CCC[C@H](C(=O)O)C3)c(C)n2)nnn1C |  |
|  | 0.025 | 9.2 | 0.025 | 0.083 | CN(C(=O)OCc1c(-c2ccc(O[C@H]3CCC[C@H](C(=O)O)C3)cn2)nnn1C)C1CCCC1 | 46.3 |
|  |  | 35.4 |  |  | Cc1noc(-c2ccc(O[C@H]3CCC[C@H](C(=O)O)C3)nn2)c1COC(=O)N(C)C1CCCC1 (racemic) | > 50 |
| < 10 |  |  |  |  | CCCN(C)C(=O)OCc1c(-c2ccc(O[C@H]3CCC[C@H](C(=O)O[C@@H]4O[C@H](C(=O)O)[C@@H](O)[C@H](O)[C@H]4O)C3)c(C)n2)nnn1C |  |
